Patent publication US10703733B2, “MCL-1 inhibitors” (Gilead Sciences, Inc., priority 2018, dated 2020)
Where two headings read alike, the source gives them in different places.

What was measured:
[1] = target: MCL-1/Bim interaction (recombinant human MCL-1 protein, residues 171-327; biotinylated human Bim peptide, residues 51-76) (Homo sapiens (Human), UniProt Q07820); assay: MCL-1/Bim Binding AlphaLISA Assay; conditions: 0.0625 nM 6xHis-Mcl-1 (171-327), 0.0625 nM biotinylated-Bim peptide
Procedure, shortened: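 Compounds first sat 1 h with MCL-1 (171-327, 0.0625 nM), followed by 2 h with biotin-Bim 51-76 (0.0625 nM), then sequential 1 h anti-His acceptor and streptavidin donor bead steps; buffer Hepes pH 7.5 with NaCl, Brij 35, DTT, BSA. AlphaScreen signal converted to % inhibition using DMSO (negative) and protein/peptide-free (positive) controls.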

SKBR3 cells = assay: SKBR3 Cell Viability Assay (CellTiter Glo); assay type: cell-based; conditions: CellTiter Glo luminescence, read-out: MCL-1 CV SKBR3 EC50
Procedure, shortened: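 Viability read as CellTiter Glo luminescence after 72 h of compound exposure at 37° C./5% CO2, using 6,000 SKBR3 cells per well in McCoy 5A with 10% FBS. Percent inhibition scaled between DMSO wells and 10 μM puromycin wells.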

MCL-1/Bim interaction (recombinant human MCL-1 protein, residues 171-327; biotinylated human Bim peptide, residues 51-76), sequence (Q07820 171-327): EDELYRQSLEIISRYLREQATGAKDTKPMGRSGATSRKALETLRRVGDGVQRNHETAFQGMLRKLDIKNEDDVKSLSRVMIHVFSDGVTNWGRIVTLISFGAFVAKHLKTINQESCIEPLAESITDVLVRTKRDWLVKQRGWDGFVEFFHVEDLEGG

Structure (SMILES)	IC50 [1] [nM]	EC50 (SKBR3 cells; Homo sapiens, SK-BR-3, 72 h) [nM]	EC50 (SKBR3 cells; 72 hours) [nM]
CO[C@H]1/C=C/CCC[S@@](=O)(NC(=O)CCc2ccccc2)=NC(=O)c2ccc3c(c2)N(C[C@@H]2CC[C@H]21)C[C@@]1(CCCc2cc(Cl)ccc21)CO3 [Example 97]	0.6	788	–
CO[C@H]1/C=C/CCC[S@@](=O)(NC(=O)CCc2nccn2C)=NC(=O)c2ccc3c(c2)N(C[C@@H]2CC[C@H]21)C[C@@]1(CCCc2cc(Cl)ccc21)CO3 [Example 43]	1.6	2410	–
CO[C@H]1/C=C/CCC[S@@](=O)(NC(=O)NC(C)C)=NC(=O)c2ccc3c(c2)N(C[C@@H]2CC[C@H]21)C[C@@]1(CCCc2cc(Cl)ccc21)CO3 [Example 19]	1.1	1080	–
CO[C@H]1/C=C/C[C@H](C)C[S@@](=O)(NC(=O)[C@H]2Cc3ccccc3CO2)=NC(=O)c2ccc3c(c2)N(C[C@@H]2CC[C@H]21)C[C@@]1(CCCc2cc(Cl)ccc21)CO3 (single isomer, unassigned) [Example 143]	0.173	219	–
COC1CN(C(=O)N[S@@]2(=O)=NC(=O)c3ccc4c(c3)N(C[C@@H]3CC[C@H]3[C@@H](O)/C=C/C[C@H](C)C2)C[C@@]2(CCCc3cc(Cl)ccc32)CO4)C1 [Example 266]	0.085	53.8	–
CCn1ccc(CCC(=O)N[S@@]2(=O)=NC(=O)c3ccc4c(c3)N(C[C@@H]3CC[C@H]3[C@@H](OC)/C=C/C[C@H](C)[C@H]2C)C[C@@]2(CCCc3cc(Cl)ccc32)CO4)n1 [Example 408]	0.054	241	–
CO[C@H]1/C=C/CCC[S@@](=O)(NC(=O)NCc2cnccn2)=NC(=O)c2ccc3c(c2)N(C[C@@H]2CC[C@H]21)C[C@@]1(CCCc2cc(Cl)ccc21)CO3 [Example 80]	0.3	1060	–
CO[C@H]1/C=C/CCC[S@@](=O)(NC(C)=O)=NC(=O)c2ccc3c(c2)N(C[C@@H]2CC[C@H]21)C[C@@]1(CCCc2cc(Cl)ccc21)CO3 [Example 25]	0.6	2010	–
COc1nn(C)cc1C(=O)NS1(=O)=NC(=O)c2ccc3c(c2)N(C[C@@H]2CC[C@H]2[C@@H](OC)/C=C/[C@H](OC(=O)CCc2ccccc2)[C@H](C)C1)C[C@@]1(CCCc2cc(Cl)ccc21)CO3 (single isomer, unassigned) [Example 378]	1.15	–	1180
COC(=O)N1CCC(OCC(=O)N[S@@]2(=O)=NC(=O)c3ccc4c(c3)N(C[C@@H]3CC[C@H]3[C@@H](OC)/C=C/C[C@H](C)[C@H]2C)C[C@@]2(CCCc3cc(Cl)ccc32)CO4)CC1 [Example 418]	0.197	335	–
CO[C@H]1/C=C/C[C@H](C)[C@@H](C)[S@@](=O)(NC(=O)[C@H]2C[C@@](C)(O)C2)=NC(=O)c2ccc3c(c2)N(C[C@@H]2CC[C@H]21)C[C@@]1(CCCc2cc(Cl)ccc21)CO3 [Example 166]	0.067	79.8	–
CO[C@H]1/C=C/CCC[S@@](=O)(NC(=O)CCc2scnc2C)=NC(=O)c2ccc3c(c2)N(C[C@@H]2CC[C@H]21)C[C@@]1(CCCc2cc(Cl)ccc21)CO3 [Example 93]	51	4820	–
CO[C@H]1/C=C/CCC[S@@](=O)(NC(=O)CCc2nnc(C)o2)=NC(=O)c2ccc3c(c2)N(C[C@@H]2CC[C@H]21)C[C@@]1(CCCc2cc(Cl)ccc21)CO3 [Example 60]	0.2	1090	–

Continued, values first:

IC50 [1] [nM]	EC50 (SKBR3 cells; Homo sapiens, SK-BR-3, 72 h) [nM]	EC50 (SKBR3 cells; 72 hours) [nM]	Structure (SMILES)
0.029	10.5	–	CO[C@H]1/C=C/C[C@H](C)C[S@@](=O)(NC(=O)c2cc(CN3CCN(C4COC4)CC3)n(C)c2)=NC(=O)c2ccc3c(c2)N(C[C@@H]2CC[C@H]21)C[C@@]1(CCCc2cc(Cl)ccc21)CO3 [Example 309]
0.129	46.4	–	COC(=O)N1CCn2cc(C(=O)N[S@@]3(=O)=NC(=O)c4ccc5c(c4)N(C[C@@H]4CC[C@H]4[C@@H](OC)/C=C/C[C@H](C)C3)C[C@@]3(CCCc4cc(Cl)ccc43)CO5)cc2C1 [Example 177]
0.086	65.3	–	CO[C@H]1/C=C/C[C@H](C)C[S@@](=O)(NC(=O)[C@H]2CCc3cnn(C)c3C2)=NC(=O)c2ccc3c(c2)N(C[C@@H]2CC[C@H]21)C[C@@]1(CCCc2cc(Cl)ccc21)CO3 (single isomer, unassigned) [Example 141]
0.04	37.6	–	CNc1nn(C)cc1C(=O)N[S@@]1(=O)=NC(=O)c2ccc3c(c2)N(C[C@@H]2CC[C@H]2[C@@H](OC)/C=C/C[C@H](C)C1)C[C@@]1(CCCc2cc(Cl)ccc21)CO3 [Example 212]
0.082	91	–	CC[C@H]1C/C=C/[C@H](OC)[C@@H]2CC[C@H]2CN2C[C@@]3(CCCc4cc(Cl)ccc43)COc3ccc(cc32)C(=O)N=[S@](=O)(NC(=O)c2cc3n(c2)CCOC3)C1 [Example 202]
0.087	144	–	CO[C@H]1/C=C/C[C@H](C)C[S@@](=O)(NC(=O)N[C@H]2C[C@H]2C)=NC(=O)c2ccc3c(c2)N(C[C@@H]2CC[C@H]21)C[C@@]1(CCCc2cc(Cl)ccc21)CO3 [Example 159]
0.081	233	–	CO[C@H]1/C=C/C[C@H](C)C[S@@](=O)(NC(=O)c2cn(C)nc2OCC2OCCO2)=NC(=O)c2ccc3c(c2)N(C[C@@H]2CC[C@H]21)C[C@@]1(CCCc2cc(Cl)ccc21)CO3 [Example 356]
0.194	146	–	C[C@H]1C/C=C/[C@H](OCC2CC2)[C@@H]2CC[C@H]2CN2C[C@@]3(CCCc4cc(Cl)ccc43)COc3ccc(cc32)C(=O)N=[S@](=O)(NC(=O)c2cnn(C)c2)C1 [Example 410]
0.037	147	–	CO[C@H]1/C=C/C[C@H](C)C[S@@](=O)(NC(=O)c2cc3n(n2)CCOC3)=NC(=O)c2ccc3c(c2)N(C[C@@H]2CC[C@H]21)C[C@@]1(CCCc2cc(Cl)ccc21)CO3 [Example 424]
0.059	41.7	–	CO[C@H]1/C=C/C[C@H](C)C[S@@](=O)(NC(=O)N[C@H]2C[C@@H]2C(F)(F)F)=NC(=O)c2ccc3c(c2)N(C[C@@H]2CC[C@H]21)C[C@@]1(CCCc2cc(Cl)ccc21)CO3 [Example 243]
0.17	139	–	CO[C@H]1/C=C/C[C@H](C)C[S@@](=O)(NC(=O)c2ccc3c(c2)CCOC3)=NC(=O)c2ccc3c(c2)N(C[C@@H]2CC[C@H]21)C[C@@]1(CCCc2cc(Cl)ccc21)CO3 [Example 430]
0.073	76.1	–	CO[C@H]1/C=C/C[C@H](C)C[S@@](=O)(NC(=O)c2cc(C)co2)=NC(=O)c2ccc3c(c2)N(C[C@@H]2CC[C@H]21)C[C@@]1(CCCc2cc(Cl)ccc21)CO3 [Example 203]
0.091	316	–	CO[C@H]1/C=C/C[C@H](C)C[S@@](=O)(NC(=O)[C@H]2C[C@@H]2c2cccnc2)=NC(=O)c2ccc3c(c2)N(C[C@@H]2CC[C@H]21)C[C@@]1(CCCc2cc(Cl)ccc21)CO3 [Example 426]
0.081	264	–	COc1ccc(C(=O)N[S@@]2(=O)=NC(=O)c3ccc4c(c3)N(C[C@@H]3CC[C@H]3[C@@H](OC)/C=C/C[C@H](C)C2)C[C@@]2(CCCc3cc(Cl)ccc32)CO4)cc1 [Example 269]
0.041	48.6	–	CO[C@H]1/C=C/C[C@H](C)C[S@@](=O)(NC(=O)N2CCN3CCOC[C@H]3C2)=NC(=O)c2ccc3c(c2)N(C[C@@H]2CC[C@H]21)C[C@@]1(CCCc2cc(Cl)ccc21)CO3 [Example 334]
0.066	74.4	–	CO[C@H]1/C=C/C[C@H](C)C[S@@](=O)(NC(=O)N[C@@H]2C[C@@H]2OC)=NC(=O)c2ccc3c(c2)N(C[C@@H]2CC[C@H]21)C[C@@]1(CCCc2cc(Cl)ccc21)CO3 [Example 318]
